In patent US20220125051A1, “PRE-HARVEST DESICCATION METHOD” (SYNGENTA CROP PROTECTION AG, priority 2019, published 2022):
Where two headings read alike, the source gives them in different places.

Tests used:
Assay in all cases: Post-emergence efficacy, Method A
Type in all cases: in vivo
[1] = tested on: Digitaria sanguinalis (DIGSA); conditions: Digitaria sanguinalis, post-emergence, 312 h, evaluated after 13 days
Procedure, shortened: (§1)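 Plants grown 14 days in glasshouse (24/16 °C, 14 h light, 65% humidity) were sprayed with compound formulated in IF50. The spray was diluted in 0.25% or 1% Empicol ESC70 plus 1% ammonium sulphate. Damage was scored 13 days later on a 0-100 scale, where 100 is total damage.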

[2] = tested on: Ipomoea hederacea (IPOHE); conditions: Ipomoea hederacea, post-emergence, 312 h, evaluated after 13 days
Procedure, shortened: as §1

[3] = tested on: Chenopodium album (CHEAL); conditions: Chenopodium album, post-emergence, 312 h, evaluated after 13 days
Procedure, shortened: as §1

[4] = tested on: Amaranthus palmeri (AMAPA); conditions: Amaranthus palmeri, post-emergence, 312 h, evaluated after 13 days
Procedure, shortened: as §1

[5] = tested on: Echinochloa crus-galli (ECHCG); conditions: Echinochloa crus-galli, post-emergence, 312 h, evaluated after 13 days
Procedure, shortened: as §1

Lolium perenne (LOLPE) = conditions: Lolium perenne, post-emergence, 312 h, evaluated after 13 days
Procedure, shortened: as §1

Setaria faberi (SETFA) = conditions: Setaria faberi, post-emergence, 312 h, evaluated after 13 days
Procedure, shortened: as §1

Eleusine indica (ELEIN) = conditions: Eleusine indica, post-emergence, 312 h, evaluated after 13 days
Procedure, shortened: as §1

[6] = tested on: Euphorbia heterophylla (EPHHL); conditions: Euphorbia heterophylla, post-emergence, 312 h, evaluated after 13 days
Procedure, shortened: as §1

[7] = Application Rate 500 g/Ha, Method A, read-out: Control of weed species after post-emergence application, DIGSA (100=total damage to plant; 0=no damage to plant)
[8] = Application Rate 500 g/Ha, Method A, read-out: Control of weed species after post-emergence application, IPOHE (100=total damage to plant; 0=no damage to plant)
[9] = Application Rate 500 g/Ha, Method A, read-out: Control of weed species after post-emergence application, CHEAL (100=total damage to plant; 0=no damage to plant)
[10] = Application Rate 500 g/Ha, Method A, read-out: Control of weed species after post-emergence application, AMAPA (100=total damage to plant; 0=no damage to plant)
[11] = Application Rate 500 g/Ha, Method A, read-out: Control of weed species after post-emergence application, ECHCG (100=total damage to plant; 0=no damage to plant)
[12] = Application Rate 500 g/Ha, Method A, read-out: Control of weed species after post-emergence application, LOLPE (100=total damage to plant; 0=no damage to plant)
[13] = Application Rate 500 g/Ha, Method A, read-out: Control of weed species after post-emergence application, SETFA (100=total damage to plant; 0=no damage to plant)
[14] = Application Rate 500 g/Ha, Method A, read-out: Control of weed species after post-emergence application, ELEIN (100=total damage to plant; 0=no damage to plant)
[15] = Application Rate 500 g/Ha, Method A, read-out: Control of weed species after post-emergence application, EPHHL (100=total damage to plant; 0=no damage to plant)
[16] = Application rate 500 g/Ha, 100=total damage to plant, 0=no damage to plant, read-out: Control of weed species after post-emergence application, DIGSA
[17] = Application rate 500 g/Ha, 100=total damage to plant, 0=no damage to plant, read-out: Control of weed species after post-emergence application, IPOHE
[18] = Application rate 500 g/Ha, 100=total damage to plant, 0=no damage to plant, read-out: Control of weed species after post-emergence application, CHEAL
[19] = Application rate 500 g/Ha, 100=total damage to plant, 0=no damage to plant, read-out: Control of weed species after post-emergence application, AMAPA
[20] = Application rate 500 g/Ha, 100=total damage to plant, 0=no damage to plant, read-out: Control of weed species after post-emergence application, ECHCG
[21] = Application rate 500 g/Ha, 100=total damage to plant, 0=no damage to plant, read-out: Control of weed species after post-emergence application, LOLPE
[22] = Application rate 500 g/Ha, 100=total damage to plant, 0=no damage to plant, read-out: Control of weed species after post-emergence application, SETFA
[23] = Application rate 500 g/Ha, 100=total damage to plant, 0=no damage to plant, read-out: Control of weed species after post-emergence application, ELEIN
[24] = Application rate 500 g/Ha, 100=total damage to plant, 0=no damage to plant, read-out: Control of weed species after post-emergence application, EPHHL

SMILES | pest or weed control at 500 g/ha [1, 7] [%] | pest or weed control at 500 g/ha [2, 8] [%] | pest or weed control at 500 g/ha [3, 9] [%] | pest or weed control at 500 g/ha [4, 10] [%] | pest or weed control at 500 g/ha [5, 11] [%] | pest or weed control at 500 g/ha (Lolium perenne (LOLPE); [12]) [%] | pest or weed control at 500 g/ha (Setaria faberi (SETFA); [13]) [%] | pest or weed control at 500 g/ha (Eleusine indica (ELEIN); [14]) [%] | pest or weed control at 500 g/ha [6, 15] [%] | pest or weed control at 500 g/ha [1, 16] [%] | pest or weed control at 500 g/ha [2, 17] [%] | pest or weed control at 500 g/ha [3, 18] [%] | pest or weed control at 500 g/ha [4, 19] [%] | pest or weed control at 500 g/ha [5, 20] [%] | pest or weed control at 500 g/ha (Lolium perenne (LOLPE); [21]) [%] | pest or weed control at 500 g/ha (Setaria faberi (SETFA); [22]) [%] | pest or weed control at 500 g/ha (Eleusine indica (ELEIN); [23]) [%] | pest or weed control at 500 g/ha [6, 24] [%]
N#Cc1cnc(-c2cc[n+](CCS(=O)(=O)[O-])nc2)cn1 [Compound A191] | 20 | 30 | 30 | 100 | 10 | 30 | 20 | 30 | 30 |  |  |  |  |  |  |  |  | 
O=C(O)CC[n+]1ccc(-c2ccnc(O)n2)cn1 [Compound A86] |  |  |  |  |  |  |  |  |  | 30 | 40 | 40 | 30 | 20 | 10 | 40 | 10 | 50
OCCC[n+]1ccc(-c2ncccn2)cn1 [Compound A206] | 20 | 20 | 90 | 60 | 20 | 0 | 10 | 10 | 60 |  |  |  |  |  |  |  |  | 
O=C(O)C(O)C[n+]1ccc(-c2ncccn2)cn1 (stereo not drawn) [Compound A180] | 60 | 20 | 90 | 100 | 70 | 30 | 70 | 90 | 80 |  |  |  |  |  |  |  |  | 
CC(C)(C[n+]1ccc(-c2ncccn2)cn1)S(=O)(=O)[O-] [Compound A114, 2-methyl-1-(4-pyrimidin-2-ylpyridazin-1-ium-1-yl)propane-2-sulfonate] |  |  |  |  |  |  |  |  |  | 80 | 60 | 60 | 100 | 60 | 70 | 40 | 90 | 80
COC(=O)C(C)[n+]1ccc(-c2ncccn2)cn1 (stereo not drawn) [Compound A192] | 30 | 30 | 60 | 90 | 30 | 10 | 20 | 30 | 40 |  |  |  |  |  |  |  |  | 
Cc1cnc(-c2cc[n+](CCS(=O)(=O)[O-])nc2)c(Cl)c1 [Compound A136] |  |  |  |  |  |  |  |  |  | 60 | 30 | 30 | 60 | 40 | 20 | 70 | 50 | 30
